US20210137898A1, “METHODS TO TREAT GLIOMAS USING A STAT3 INHIBITOR” (Mayo Foundation for Medical Education and Research, priority 2017, published 2021)

What was measured:
[1] = tested on: H3K27me3 in H3K27M tumor cells (Peds8); assay: Global H3K27 trimethylation in H3K27M tumor cells after treatment; format: cell-based; details: vs no treatment (NT), FIG. 6B-D
Method: (§1) The role of STAT3 in midline H3K27M tumors (e.g., diffuse midline H3K27M tumors) has not been studied. To further validate STAT3 signaling as a potential drug target in these patients, it was determined if STAT3 is required for proliferation of H3K27M cells. […] Because of the critical dependence of STAT3 signaling in H3K27M tumor cells, the activity of STAT3 (pSTAT3) would be elevated in patients with DIPG tumors. Using treatment naive surgical samples from DIPG patients, an increase (>10-fold) in pSTAT3 levels was observed as compared to non-neoplastic brain tissues from other surgeries (FIG. 5A). Using large cohorts from published data sets, it was also seen a >2-fold increase in STAT3 mRNA expression (RNA-seq) in DIPG patients compared to normal brainy (FIG. 5B). In addition, pSTAT3 expression levels were increased in H3K27M cell lines compared to WT lines in both pediatric and adult high-grade gliomas (FIG. 6). […] The data presented supports a method of treating glioma with H3K27M mutation by restoration of methylation pattern. In one example, the methylation pattern is restored by a H3K27me3 demethylase inhibitor (e.g., GSK-J4).

WT SF9427 cell line = assay: Cell viability, STAT3 inhibitors, WT SF9427 cell line; format: cell-based; details: WT SF9427 cells, FIG. 4B/4C
Method: (§2) Results are mean±SD of three independent experiments. B and C. H3K27M cells (Peds8 and DIPG8) are selectively sensitive to inhibition by STAT3 inhibitors. […] C.
as §1

Peds8 H3K27M cells = assay: Cell viability, STAT3 inhibitors, H3K27M cells Peds8; format: cell-based
Method: as §2, §1

H3K27M tumor Peds17 = tested on: H3K27M tumor Peds17; design: species or system mice; details: mouse, in vivo, po
Method: H3K27M tumor Peds17 treated with STAT3 inhibitor WP1066 (20 mg/kg oral gavage) vs. control (DMSO) for 8 weeks. […] Cohorts of mice (n=10/group), were implanted in the brainstem and BLI was performed weekly using IVIS Lumina imaging system using luciferase transfected tumor cells.
To validate STAT3 as a therapeutic target for H3K27M tumors, the effects on tumor growth with WP1066 were evaluated in intracranial orthotopic xenografts (FIG. 7).

DIPG8 H3K27M cells = assay: Cell viability, STAT3 inhibitors, H3K27M cells DIPG8; format: cell-based; details: FIG. 4B/4C
Method: as §2, §1

| Structure (SMILES) | H3K27me3 level [1] | IC50 (WT SF9427 cell line) [µM] | IC50 (Peds8 H3K27M cells; Peds8 (H3K27M) cells, FIG. 4B/4C) [µM] | cell viability of two H3K27M DIPG cell lines (Peds8 H3K27M cells; two H3K27M DIPG cell lines, much less in WT SF9427 cell line) | toxicities in the mice (H3K27M tumor Peds17) | IC50 (DIPG8 H3K27M cells) [µM] |
| --- | --- | --- | --- | --- | --- | --- |
| CCOC(=O)CCNc1cc(N2CCc3ccccc3CC2)nc(-c2ccccn2)n1 [GSKJ4] | increases H3K27me3 |  |  |  |  |  |
| C[C@H](NC(=O)/C(C#N)=C/c1cccc(Br)n1)c1ccccc1 [WP1066] | increases H3K27me3 | 62.3 | 1.9 | inhibited cell viability | no toxicities were noted | 2.5 |
